Measured values: US11284623B2 (priority 2012, dated 2022)
Where two headings read alike, the source gives them in different places.

How the values were obtained:
Type in all cases: in vivo
[1] = system: Rhizoctonia solani (AG 2); test: Use example FG-8: efficacy against R. solani on roots, pot trials, seed treatment; settings: 10 g ai per 100 kg seeds
Experimental: (§1) Triticonazole was applied as commercial seed treatment formulation PREMIS 25 FS (25 g/L a.i., BASF SE, Ludwigshafen, Germany). Pyraclostrobin was applied as commercial seed treatment formulation STAMINA (200 g/L a.i., BASF SE, Ludwigshafen, Germany).
(§2) In 4 pot tests in the greenhouse in Limburgerhof, Bacillus subtilis MBI600, as SC formulation of spores with CFU of about 4×10^11 per ml, was tested in the crops corn and rape seed against different pathogens (Fusarium, Rhizoctonia, Scleroftinia) as solo product and in combination with triticonazole or pyraclostrobin. […]
(§3) The efficacy (E) was calculated using the Abbot's formula: E=(1−α/β)·100 • α corresponds to the fungicidal infection of the treated plants in % and • β corresponds to the fungicidal infection of the untreated (control) plants in %
(§4) The expected efficacies of active compound combinations were determined using Colby's formula (Colby, S. R. “Calculating synergistic and antagonistic responses of herbicide combinations”, Weeds 15, pp. 20-22, 1967) and compared with the observed efficacies. […]
(§5) For the assessment, the roots were washed out to evaluate the disease symptoms on the roots. […] In corn in addition the disease symptoms on the first leaf were evaluated according to a 2 class evaluation. […]

[2] = system: Rhizoctonia solani (AG 2); test: Use example FG-8: root mass affected by R. solani, pot trials, seed treatment; settings: 10 g ai per 100 kg seeds; corn infected with R. solani
Experimental: as §1
as §2, with “pyraclostrobin. The application of the different products was done as seed treatment and the seeds were treated in the BASF Seed Solutions Technology Center (SSTC) Limburgerhof using a batch lab treater.” for “pyraclostrobin.”
as §4
For the assessment, the roots were washed out to evaluate the disease symptoms on the roots. […] In corn in addition the disease symptoms on the first leaf were evaluated according to a 2 class evaluation. The figures from the class evaluation were converted into efficacies in % of the untreated control and the efficacy (E) was calculated as follows using Abbot's formula.

[3] = system: Rhizoctonia solani (AG 2); test: Use example FG-8: efficacy against R. solani assessed on first leaf, pot trials, seed treatment; settings: 10 g ai per 100 kg seeds, corn
Experimental: as §1, §2, §3, §4, §5

Fusarium graminearum [4] = settings: 5 g ai per 100 kg seeds; corn, lower roots; % of untreated control (Abbot)
Fusarium graminearum [5] = settings: 5 g ai per 100 kg seeds; corn, mesocotyl

| Structure (SMILES) | Observed efficacy (%) [1] [%] | Root mass in % of uninfected control [2] [%] | Observed efficacy (%) [3] [%] | Observed efficacy (Fusarium graminearum [4]) [%] | Observed efficacy (Fusarium graminearum [5]) [%] |
| --- | --- | --- | --- | --- | --- |
| COC(=O)N(OC)c1ccccc1COc1ccn(-c2ccc(Cl)cc2)n1 [Pyraclostrobin] | 28.7 | 23.3 | 1.9 | – | – |
| CC1(C)CCC(=Cc2ccc(Cl)cc2)C1(O)Cn1cncn1 (centres unmarked) [Triticonazole] | – | – | – | 39.8 | 60 |
